We go through one molecule from ChEMBL document CHEMBL2331167, “Inhibitory effect of novel somatostatin peptide analogues on human cancer cell growth based on the selective inhibition of DNA polymerase β” (Bioorg Med Chem, 2013).

Each structure is given as a SMILES string. Calls of active or inactive are those of the source. The rule behind the calls is not given here. Some results are limits rather than exact numbers.

For assay [1], the system named is HCT-116. As to the kind of experiment: Induction of apoptosis in p53 -/- human HCT116 cells assessed as DNA fragmentation at 13.7 uM incubated for 24 hrs by agarose gel electrophoresis. Format: functional, cell-based.
The target in assay [2] is T1, DNA polymerase subunit gamma-1 (Homo sapiens, UniProt P54098).
T1 sequence (P54098 whole entry): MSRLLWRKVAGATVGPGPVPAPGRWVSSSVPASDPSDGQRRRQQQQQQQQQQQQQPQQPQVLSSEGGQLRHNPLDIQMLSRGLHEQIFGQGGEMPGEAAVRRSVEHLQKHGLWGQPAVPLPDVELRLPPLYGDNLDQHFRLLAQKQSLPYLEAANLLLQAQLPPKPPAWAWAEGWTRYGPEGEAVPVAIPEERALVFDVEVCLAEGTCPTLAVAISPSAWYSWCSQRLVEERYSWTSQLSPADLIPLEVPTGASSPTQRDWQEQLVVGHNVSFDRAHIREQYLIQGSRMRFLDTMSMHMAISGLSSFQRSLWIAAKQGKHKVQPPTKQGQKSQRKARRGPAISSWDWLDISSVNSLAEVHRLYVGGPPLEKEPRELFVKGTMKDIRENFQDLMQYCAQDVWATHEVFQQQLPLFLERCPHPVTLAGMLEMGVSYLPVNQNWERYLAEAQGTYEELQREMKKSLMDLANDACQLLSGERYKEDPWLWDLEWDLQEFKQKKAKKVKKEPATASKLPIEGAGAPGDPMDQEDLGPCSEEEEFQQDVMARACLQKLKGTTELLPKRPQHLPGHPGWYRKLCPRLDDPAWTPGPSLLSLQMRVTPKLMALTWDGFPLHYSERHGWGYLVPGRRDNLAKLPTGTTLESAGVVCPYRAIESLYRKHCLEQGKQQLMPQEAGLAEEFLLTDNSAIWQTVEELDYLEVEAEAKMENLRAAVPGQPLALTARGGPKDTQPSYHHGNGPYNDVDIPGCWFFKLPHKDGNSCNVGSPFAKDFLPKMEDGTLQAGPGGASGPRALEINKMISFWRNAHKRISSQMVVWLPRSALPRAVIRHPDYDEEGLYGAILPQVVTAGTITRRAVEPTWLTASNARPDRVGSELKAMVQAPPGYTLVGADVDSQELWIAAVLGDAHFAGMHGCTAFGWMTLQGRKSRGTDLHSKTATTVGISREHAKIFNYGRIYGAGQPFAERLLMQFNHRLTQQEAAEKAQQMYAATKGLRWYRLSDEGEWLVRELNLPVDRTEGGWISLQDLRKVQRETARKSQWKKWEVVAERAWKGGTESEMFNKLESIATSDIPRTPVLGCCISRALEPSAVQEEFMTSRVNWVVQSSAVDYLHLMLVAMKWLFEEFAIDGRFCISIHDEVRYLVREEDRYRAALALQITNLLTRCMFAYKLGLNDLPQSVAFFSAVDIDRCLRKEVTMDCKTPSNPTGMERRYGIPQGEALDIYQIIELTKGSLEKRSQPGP
The experiment in a line: Inhibition of human DNA polymerase gamma using poly(dA)/oligo(dT)18 (A/T, 2/1)/dTTP DNA template-primer substrate measured at 37 degC for 60 mins.

Assay [3] deals with HCT-116. The experiment in a line: Cytotoxicity against MMS-induced p53 +/+ human HCT116 cells assessed as reduction in clonogenic survival at 13.2 uM incubated for 24 hrs by WST-1 assay relative to control. The format is functional. (In general: Tetrazolium dyes change colour on reduction, which living cells bring about.)

On to `CC[C@H](C)[C@H](NC(=O)[C@H](Cc1ccc(O)cc1)NC(=O)OC(C)(C)C)C(=O)Nc1cccc2ccccc12`, for which the outcome in assay [1] was Active. In assay [2], this molecule displayed an IC50 of more than 200 µM. Moreover, the “fold change (FC)” value in assay [3] amounted to 2.

As a reminder, the IC50 is the concentration that gives 50% inhibition. Read a low IC50 as greater potency.
